The results in this text go back to PubChem BioAssay (NCI).

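In this assay, cells in 96-well plates receive the compound at five concentrations for 48 hours. Endpoints are linearly interpolated between the surrounding concentrations. Here, GI50 denotes the concentration required for 50% inhibition of growth. TGI marks complete inhibition of growth.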

What all share (experiment): NCI anticancer screen, dose series, 48 h
The test system of assay [1] is LOX IMVI melanoma.
The subject of assay [2] is BT-549 breast.
Assay [3] relates to SK-MEL-2 melanoma.
Assay [4] has as its system EKVX NSCLC.
Assay [5] has as its system MALME-3M melanoma.
Assay [6] deals with UO-31 renal.
Assay [7] relates to RXF 393 renal.
Assay [8] has as its system DU-145 prostate.
In assay [9] the test system is T-47D breast.
For assay [10], the system named is HCT-15 colon.

Take `COc1ccc(N=N/C(=N\NC(=O)c2cc(Br)ccc2O)c2ccc(N(CCC#N)CCC#N)cc2OC)cc1`: the GI50 in assay [1] is 53.2 µg/mL; in assay [2], greater than 150 µg/mL; in assay [3], 95.8 µg/mL; in [4] it was greater than 150 µg/mL; in assay [5] it was 68.2 µg/mL; in assay [6], 59.5 µg/mL. Besides, the GI50 is 50.2 µg/mL in assay [7], 82 µg/mL in assay [8], 72.5 µg/mL in assay [9] and 42 µg/mL in assay [10]. The TGI in assay [1], in assay [2], in assay [3], in assay [4], in assay [5] and in assay [6] was greater than 150 µg/mL throughout. The TGI in [7], in assay [8], in assay [9] and in [10] was greater than 150 µg/mL throughout.

As to `O=C(COc1cccc(/C=C2\COc3ccccc3C2=O)c1)c1ccccc1`, the GI50 in assay [1] was 1660 nM; in assay [2], 5.3 µM; in assay [3], 2750 nM; in assay [4] it was 7.98 µM; in assay [5], 13.1 µM; in [6] it was 1770 nM. Besides, the GI50 was 2480 nM in assay [7], 6.11 µM in assay [8], 2530 nM in [9] and 1.85 µM in assay [10]. The TGI in [1] turned out to be 3.12 µM; in assay [2], 22.2 µM; in [3], 9.68 µM; in [4] it was 20.6 µM; in [5], 28.2 µM; in assay [6], 3.26 µM. The TGI stood at 9.29 µM in [7], 17.4 µM in [8], 6.04 µM in [9] and 4.45 µM in assay [10].

On to `CON=C1C[C@]2(C[C@@H]3C[C@@H](C/C=C(\C)C[C@@H](C)/C=C/C=C4\CO[C@@H]5[C@H](O)C(C)=C[C@@H](C(=O)O3)[C@]45O)O2)O[C@H](/C(C)=C/C(C)C)[C@H]1C`, for which the GI50 is 13300 nM in [1]; 18 µM in [2]; 15400 nM in [3]; 6.99 µM in assay [4]; 17.1 µM in assay [5]; 11200 nM in [6]. Moreover, the GI50 in assay [7] was 16400 nM; in assay [8], 7.55 µM; in [9], 8900 nM; in assay [10] it was 14.9 µM. The TGI was 26.5 µM in assay [1]; 33.4 µM in assay [2]; 32.5 µM in assay [3]; 24 µM in [4]; 34.4 µM in assay [5]; 23.3 µM in assay [6]. In addition, the TGI in assay [7] came to 30.6 µM; in assay [8], 20.1 µM; in [9] it was 22.2 µM; in assay [10], 30.9 µM.

Regarding `COc1cc(N2CCN(C(C)C)CC2)ccc1Nc1nc(Nc2ccc(F)cc2C(=O)NCC(O)CO)c2cc[nH]c2n1` (configuration not stated), the GI50 in [1] was 1640 nM; in assay [2], 8.23 µM; in assay [3], 4180 nM; in assay [4] it was greater than 13.8 µM; in assay [5], 4.65 µM; in [6] it was greater than 25000 nM. Further, the GI50 in assay [7] was 11400 nM; in assay [8], 3.73 µM; in assay [9] it was 7520 nM; in [10] it was greater than 25 µM. Moreover, the TGI was greater than 25 µM in assay [1]; greater than 25 µM in assay [2]; greater than 23.6 µM in [3]; greater than 25 µM in [4]; greater than 25 µM in assay [5]; greater than 25 µM in assay [6]. For the same molecule, the TGI in [7], in assay [8], in assay [9] and in [10] was greater than 25 µM in each case.

Take `CN1C(=O)/C(=C2\S/C(=N\c3nnc(-c4ccccc4)o3)NC2=O)c2ccccc21`: the GI50 in [1] was 77900 nM; in assay [2], greater than 100 µM; in [3] it was greater than 100000 nM; in assay [4] it was greater than 100 µM; in assay [6] it was greater than 100000 nM; in [7], greater than 100000 nM. Further, the GI50 in assay [8] is greater than 100 µM; in assay [9], greater than 100000 nM; in [10] it was greater than 100 µM. In addition, the TGI in assay [1], in assay [2], in assay [3], in assay [4], in assay [6] and in assay [7] was greater than 100 µM each time. Moreover, the TGI in [8], in assay [9] and in assay [10] was greater than 100 µM in each case.

Turning to `CS(=O)(=O)O[C@H]1C(=O)N(c2cc3c4ccccc4ccc3c3ccccc23)[C@@H]1c1ccccn1`, the GI50 in assay [1] is 588 nM; in assay [2], 0.501 µM; in assay [3], 687 nM; in assay [6] it was 760 nM; in assay [7], 242 nM; in assay [8] it was 0.416 µM. In addition, the GI50 in assay [9] is 440 nM; in assay [10], 0.419 µM. Moreover, the TGI was greater than 100 µM in assay [1]; 9.79 µM in assay [2]; greater than 100 µM in [3]; greater than 100 µM in assay [6]; 0.878 µM in [7]; greater than 100 µM in assay [8]. For the same molecule, the TGI in assay [9] and in assay [10] was greater than 100 µM in each case.

On to `COc1ccc(NC(=S)C#N)cc1`, for which the TGI in assay [1], in assay [2], in assay [3], in assay [7], in [8] and in assay [9] was greater than 100 µM in each case. This molecule also displayed a TGI in assay [10] greater than 100 µM.

As for `COC1=CC(c2ccc[nH]2)=N/C1=C\c1[nH]c(C)c(C(=O)Oc2ccccc2)c1C`, the GI50 was 19.7 nM in assay [1]; 0.384 µM in [2]; 194 nM in [3]; 0.164 µM in assay [4]; 150 nM in [6]; 267 nM in [7]. The results for the GI50 in [8] and in [9] were 0.295 µM and 403 nM, respectively. Also, the TGI in [1] came to 0.0472 µM; in assay [2], 4.2 µM; in assay [3], 0.479 µM; in assay [4], 2.97 µM; in assay [6], 0.35 µM; in assay [7], 1.78 µM. The TGI in assay [8] is greater than 100 µM; in assay [9] it was 1.8 µM.
